# Target: T1, REV-ERBα LBD (human; residues 281-614 Δ324-422) (Homo sapiens, UniProt P20393, DEL324-422)
# T1 construct: 6×Histag-REV-ERBα LBD (human; residues 281-614 Δ324-422); made in house; host or cells: Escherichia coli
# Test: TR-FRET corepressor interaction assay (REV-ERBα LBD, FITC-SMRT peptide)
# Format: biochemical
# Conditions: FITC-SMRT peptide, read-out: REVERBα agonism (EC50 class, FRET assay)
# In short: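 Compound serial dilutions (in DMSO, triplicate) incubated 2 h at 4 °C; Tb donor excited at 340 nm, emission read at 495 nm and FITC acceptor at 520 nm. TR-FRET ratio (520/495 nm) plotted against ligand concentration and fitted to a sigmoidal dose-response curve.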
# T1 sequence (P20393 with tags, fused parts or gaps DEL324-422): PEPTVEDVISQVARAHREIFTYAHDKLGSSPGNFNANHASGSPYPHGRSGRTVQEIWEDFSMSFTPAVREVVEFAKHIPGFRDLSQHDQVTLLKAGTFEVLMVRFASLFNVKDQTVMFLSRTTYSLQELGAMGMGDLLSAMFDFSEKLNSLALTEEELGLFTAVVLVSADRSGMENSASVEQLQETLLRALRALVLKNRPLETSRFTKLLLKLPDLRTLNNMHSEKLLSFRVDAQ
# T1 sequence (Q9Y618 2335-2356 partner limits assumed): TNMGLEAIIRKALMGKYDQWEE
row,Compound,EC50
1,"CC(C)(C)Cn1cc([C@H](NS(=O)(=O)C2CCC2)C(F)(F)F)c2cc(F)c(-c3ncccc3C#N)cc21 [Example 538, (S)—N-(1-(6-(3-cyanopyridin-2-yl)-5-fluoro-1-neopentyl-1H-indol-3-yl)-2,2,2-trifluoroethyl)cyclobutanesulfonamide]",< 500 nM
2,"CC(F)(F)Cn1cc([C@H](NS(=O)(=O)C2CCC2)C(F)(F)F)c2ccc(-c3ccccc3C(F)(F)F)cc21 [Example 442, (S)—N-(1-(1-(2,2-difluoropropyl)-6-(2-(trifluoromethyl)phenyl)-1H-indol-3-yl)-2,2,2-trifluoroethyl)cyclobutanesulfonamide]",500 to 3000 nM
3,"CC1(Cn2cc([C@H](NS(=O)(=O)C3CC3)C(F)(F)F)c3cc(F)c(-c4ccccc4C(F)(F)F)cc32)COC1 [Example 489, N-[(1S)-2,2,2-trifluoro-1-[5-fluoro-1-[(3-methyloxetan-3-yl)methyl]-6-[2-(trifluoromethyl)phenyl]indol-3-yl]ethyl]cyclopropanesulfonamide]",< 500 nM
4,"CC(C)(C)Cn1cc([C@H](NS(=O)(=O)C2CCC2)C(F)(F)F)c2cc(F)c(-c3ccccc3C#N)cc21 [Example 440, (S)—N-(1-(6-(2-cyanophenyl)-5-fluoro-1-neopentyl-1H-indol-3-yl)-2,2,2-trifluoroethyl)cyclobutanesulfonamide]",< 500 nM
5,"CCC(NS(=O)(=O)C1CCC1)c1cn(CC(C)(C)C)c2cc(-c3ccccc3C(F)(F)F)ccc12 (stereo not drawn) [Example 425, N-(1-(1-neopentyl-6-(2-(trifluoromethyl)phenyl)-1H-indol-3-yl)propyl)cyclobutanesulfonamide]",< 500 nM
6,"CC(C)(C)Cn1cc([C@H](NS(=O)(=O)C2CC2)C(F)(F)F)c2ccc(-c3ccccc3C#N)cc21 [Example 462, (S)—N-(1-(6-(2-cyanophenyl)-1-neopentyl-1H-indol-3-yl)-2,2,2-trifluoroethyl)cyclopropanesulfonamide]",< 500 nM
7,"CC(C)(C)Cn1cc([C@H](NS(=O)(=O)C2CCC2)C(F)(F)F)c2cc(F)c(-c3cccnc3C(F)(F)F)cc21 [Example 528, (S)—N-(2,2,2-trifluoro-1-(5-fluoro-1-neopentyl-6-(2-(trifluoromethyl)pyridin-3-yl)-1H-indol-3-yl)ethyl)cyclobutanesulfonamide]",< 500 nM
8,"CC(NS(=O)(=O)C1CC1)c1cn(CC(C)(C)C)c2cc(-c3ccccc3C(F)(F)F)c(F)cc12 (stereo not drawn) [Example 423, N-(1-(5-fluoro-1-neopentyl-6-(2-(trifluoromethyl)phenyl)-1H-indol-3-yl)ethyl)cyclopropanesulfonamide]",< 500 nM
9,"CC(C)(C)Cn1cc([C@H](NS(=O)(=O)C2CC2)C(F)(F)F)c2ccc(-c3ncccc3Cl)cc21 [Example 467, (S)—N-(1-(6-(3-chloropyridin-2-yl)-1-neopentyl-1H-indol-3-yl)-2,2,2-trifluoroethyl)cyclopropanesulfonamide]",500 to 3000 nM
10,"CC(C)(C)Cn1cc([C@H](NS(=O)(=O)C2CC2)C(F)(F)F)c2ccc(-c3ccccc3C(F)(F)F)nc21 [Example 491, N-[(1S)-1-[1-(2,2-dimethylpropyl)-6-[2-(trifluoromethyl)phenyl]pyrrolo[2,3-b]pyridin-3-yl]-2,2,2-trifluoro-ethyl]cyclopropanesulfonamide]",< 500 nM
11,"CC(C)(C)Cn1cc([C@H](NS(=O)(=O)C2CCC2)C(F)(F)F)c2ccc(-c3c(F)cccc3C(F)(F)F)cc21 [Example 496, (S)—N-(2,2,2-trifluoro-1-(6-(2-fluoro-6-(trifluoromethyl)phenyl)-1-neopentyl-1H-indol-3-yl)ethyl)cyclobutanesulfonamide]",< 500 nM
12,"CCC(C)n1cc([C@H](NS(=O)(=O)C2CCC2)C(F)(F)F)c2ccc(-c3ccccc3C(F)(F)F)cc21 (stereo partly drawn) [Example 446, N-((1S)-1-(1-(sec-butyl)-6-(2-(trifluoromethyl)phenyl)-1H-indol-3-yl)-2,2,2-trifluoroethyl)cyclobutanesulfonamide]",< 500 nM
13,"CC(C)(C)Cn1cc([C@H](NS(=O)(=O)C2CC2(C)C)C(F)(F)F)c2ccc(-c3ccccc3C(F)(F)F)cc21 (stereo partly drawn) [Example 426, 2,2-dimethyl-N—((S)-2,2,2-trifluoro-1-(1-neopentyl-6-(2-(trifluoromethyl)phenyl)-1H-indol-3-yl)ethyl)cyclopropane-1-sulfonamide]",500 to 3000 nM

# Same assay, conditions: Table 2, read-out: REVERBα agonism (EC50 class, FRET assay)
row,Compound,EC50
1,"O=S(=O)(N[C@@H](c1cn(CC2CCCC2)c2cc(-c3ccccc3C(F)(F)F)c(F)cc12)C(F)(F)F)C1CC1 [Example 422, (S)—N-(1-(1-(cyclopentylmethyl)-5-fluoro-6-(2-(trifluoromethyl)phenyl)-1H-indol-3-yl)-2,2,2-trifluoroethyl)cyclopropanesulfonamide]",< 500 nM
2,"CC(C)(C)Cc1cn(CCNS(=O)(=O)C2CC2)c2ccc(-c3ccc4ccccc4c3)cc12 [Example 210, N-(2-(5-(naphthalen-2-yl)-3-neopentyl-1H-indol-1-yl)ethyl)cyclopropane-sulfonamide]",500 to 3000 nM
3,"CCNc1ccc2c(CCNS(=O)(=O)N(C)C)cn(CC(C)C)c2c1 [Example 112, N′-{2-[6-ethylamino-1-(2-methylpropyl)-1H-indol-3-yl]ethyl}-N,N-dimethylsulfuric diamide]",> 3000 nM
4,"CC(C)Cn1cc([C@H](NS(=O)(=O)N(C)C)C(F)(F)F)c2ccc(C(C)C)cc21 [Example 339, dimethyl({[(1S)-2,2,2-trifluoro-1-[1-(2-methylpropyl)-6-(propan-2-yl)-1H-indol-3-yl]ethyl]sulfamoyl})amine]",< 500 nM
5,CC(C)Cn1cc([C@H]2C[C@H]2NS(=O)(=O)C(C)C)c2ccc(-c3ccccc3)cc21 [Compound 259],> 3000 nM
6,CC(C)Cn1cc(C(C)N[S+]([O-])C(C)(C)C)c2ccc(-c3ccccc3C(F)(F)F)cc21 (stereo not drawn) [Compound 291],> 3000 nM
7,CC(C)Cn1cc(CNS(=O)(=O)N(C)C)c2ccc(-c3ccncc3)cc21 [Compound 238],500 to 3000 nM
8,"CC(C)(C)Cn1cc([C@H](NS(=O)(=O)C2CC2)C(F)(F)F)c2cc(C(F)(F)F)c(-c3ccccc3C(F)(F)F)cc21 [Example 357, (S)—N-(2,2,2-trifluoro-1-(1-neopentyl-5-(trifluoromethyl)-6-(2-(trifluoromethyl)phenyl)-1H-indol-3-yl)ethyl)cyclopropanesulfonamide]",500 to 3000 nM
9,CN(C)S(=O)(=O)NCCc1cn(CCOC(C)(C)C)c2cc(-c3ccncc3)ccc12 [Compound 237],500 to 3000 nM
10,"CC(C)(C)Cn1cc([C@H](NS(=O)(=O)C2CCCC2)C(F)(F)F)c2cc(F)c(-c3ccccc3C(F)(F)F)cc21 [Example 372, (S)—N-(2,2,2-trifluoro-1-(5-fluoro-1-neopentyl-6-(2-(trifluoromethyl)phenyl)-1H-indol-3-yl)ethyl)cyclopentanesulfonamide]",500 to 3000 nM
11,"CCC(=O)n1cc(CNS(=O)(=O)N(C)C)c2ccc(-c3ccncc3)cc21 [Example 187, 1-(3-{[(dimethylsulfamoyl)amino]methyl}-6-(pyridin-4-yl)-1H-indol-1-yl)propan-1-one]",> 3000 nM
12,"CC(C)C(=O)n1cc(CNS(=O)(=O)N(C)C)c2ccc(-c3ccccc3C(F)(F)F)cc21 [Example 185, 1-(3-{[(dimethylsulfamoyl)amino]methyl}-6-[2-(trifluoromethyl)phenyl]-1H-indol-1-yl)-2-methylpropan-1-one]",< 500 nM
13,"CC(C)(C)Cn1cc([C@H](NS(=O)(=O)C2CC2)C(F)(F)F)c2cc(C(F)(F)F)c(Br)cc21 [Example 376, (S)—N-(1-(6-bromo-1-neopentyl-5-(trifluoromethyl)-1H-indol-3-yl)-2,2,2-trifluoroethyl)cyclopropanesulfonamide]",> 3000 nM
14,"CC(C)C(=O)n1cc(C(C)NS(=O)(=O)N(C)C)c2ccc(-c3ccccc3Cl)cc21 (stereo not drawn) [Example 196, 1-[6-(2-chlorophenyl)-3-{1-[(dimethylsulfamoyl)amino]ethyl}-1H-indol-1-yl]-2-methylpropan-1-one]",< 500 nM
15,"CC(C)Cn1cc([C@H](NS(=O)(=O)C2CC2)C(F)(F)F)c2cc(F)c(C(C)C)cc21 [Example 334, (S)—N-(2,2,2-trifluoro-1-(5-fluoro-1-isobutyl-6-isopropyl-1H-indol-3-yl)ethyl)cyclopropanesulfonamide]",500 to 3000 nM
16,"CC(C)Cn1cc([C@H](NS(=O)(=O)C2CC2)C(F)(F)F)c2ccc(-c3ccc(F)cc3)cc21 [Example 308, (S)—N-(2,2,2-trifluoro-1-(6-(4-fluorophenyl)-1-isobutyl-1H-indol-3-yl)ethyl)cyclopropanesulfonamide]",500 to 3000 nM
17,"CN(C)S(=O)(=O)NCCc1cn(Cc2cccc(F)c2)c2cc(-c3ccncc3)ccc12 [Example 144, N-{2-[6-(pyridin-4-yl)-1-(3-fluorobenzyl)-1H-indol-3-yl]ethyl}-N,N-dimethylsulfuric diamide]",< 500 nM
18,"COc1ccc2c(CCN(C)S(=O)(=O)N(C)C)cn(CC(C)C)c2c1 [Example 117, N-{2-[6-methoxyl-1-(2-methylpropyl)-1H-indol-3-yl]ethyl}-N-methyl-N,N-dimethyl sulfuric diamide]",> 3000 nM
19,"O=S(=O)(N[C@@H](c1cn(CC2CCCC2)c2cc(-c3ccccc3C(F)(F)F)c(F)cc12)C(F)(F)F)C1CCC1 [Example 421, (S)—N-(1-(1-(cyclopentylmethyl)-5-fluoro-6-(2-(trifluoromethyl)phenyl)-1H-indol-3-yl)-2,2,2-trifluoroethyl)cyclobutanesulfonamide]",< 500 nM
20,"CN(C)C(=O)n1cc(CCNS(=O)(=O)N(C)C)c2ccc(-c3ccncc3)cc21 [Example 194, 3-(2-((N,N-dimethylsulfamoyl)amino)ethyl)-N,N-dimethyl-6-(pyridin-4-yl)-1H-indole-1-carboxamide]",> 3000 nM

# Source: patent publication US20230339886A1 (University of Florida Research Foundation, Incorporated, priority 2020, published 2023)
